Test system: yeast genes (level of expressed mRNA)
Test: DNA chip analysis of expressed mRNA of yeast genes after 2 h culture with a toxic chemical substance
Format: cell-based, Saccharomyces cerevisiae S288C
Experimental: Yeast (Saccharomyces cerevtisiae S288C (α SUC2mal mel gap2 CUP1)) were cultured at 25° C. on YPD medium (yeast extract 1%, polypepton 2%, glucose 2%). One of toxic chemical substances was added to the cell at logarithmic growth phase, and the cell was further cultured for two hours. Cell was cultured without any chemical substance in the same condition, and was used as control. Concentrations of the chemical substances were defined to inhibit the growth of the yeast but not lead to death.
After the completion of cultivation, the culture was centrifuged to collect the cells. To the cells, sodium acetate buffer (50 mM sodium acetate, 10 mM EDTA, 1% SDS) was added, and the mixture was shaken at 65° C. for five minutes, followed by returning to room temperature, and obtaining the supernatant, which procedure was repeated two times. To the supernatant, ½ amount of a solution of phenol/chloroform was added, and the mixture was centrifuged to give a supernatant, which was added with an equal amount of chloroform, and the mixture was centrifuged to give a supernatant. To the supernatant, an equal amount of isopropanol containing 0.3 M sodium acetate was added, and the mixture was allowed to stand at room temperature for 30 minutes, after which the mixture was centrifuged to give a sediment of the whole RNAs. Seventy % ethanol was added to the sediment, and the mixture was again centrifuged to give a sediment, which was then dried and dissolved in water. mRNA was isolated from the whole RNAs as followings. In view of the fact that a poly A chain is attached to the 3′ terminus of mRNA, a polynucleotide having a poly T structure which was immobilized on the surface of latex beads was used to trap the mRNA, and then the mRNA was washed and eluted with spine column (Oligotex-dT30<Super>mRNA Purification Kit, Takara). Reverse transcription of the mRNA was conducted with a reverse transcriptase (Super Script II Reverse Transcriptase; catalogue No. 18064-014, GibcoBRL) using fluorescence-labeled nucleotides to give cDNAs that were introduced with Cy3-dUTP or Cy5-dUTP during the reverse transcription.
The labeled cDNAs were dissolved in TE buffer (10 mM Tris-HCl/1 mM EDTA, pH8.0), and the solution was dropped on the DNA chip containing the whole genes of yeast (DNA Chip Research Inc. Japan) so that the cDNAs were hybridized on the DNA chip at 65° C. for over 12 hours. The fluoresces intensity of the DNA chip was read with a scanner, and the ratio relative to the fluorescence intensity resulting from the absence of chemical substance was estimated as the following, which is shown in Tables 1 to 9: [formula]
In the Tables, “Intensity” indicated in the rightmost column is a value of the level of expressed mRNA of each gene in control cells as divided by the average level of the expressions of the whole genes.

S=C([S-])NCCNC(=S)[S-].[Zn+2] [(11), zinc N,N′-ethylenebis(dithiocarbamate)]
The level of expressed mRNA in the presence of chemical substance/absence: YDR128W (gene YDR128W): 0.3
The level of expressed mRNA in the presence of chemical substance/absence: YDR133C (gene YDR133C): 1.3
The level of expressed mRNA in the presence of chemical substance/absence: YDR140W (gene YDR140W): 1.7
The level of expressed mRNA in the presence of chemical substance/absence: YDR221W (gene YDR221W): 0.7
The level of expressed mRNA in the presence of chemical substance/absence: YDR250C (gene YDR250C): 0.6
The level of expressed mRNA in the presence of chemical substance/absence: YDR271C (gene YDR271C): 0.6
The level of expressed mRNA in the presence of chemical substance/absence: YDR278C (gene YDR278C): 0.4
The level of expressed mRNA in the presence of chemical substance/absence: YDR281C (gene YDR281C): 0.8
The level of expressed mRNA in the presence of chemical substance/absence: YDR316W (gene YDR316W): 1.3
The level of expressed mRNA in the presence of chemical substance/absence: YDR338C (gene YDR338C): 1.9
The level of expressed mRNA in the presence of chemical substance/absence: YDR366C (gene YDR366C): 1.7
level of expressed mRNA in the presence of chemical substance/in its absence (gene YDR380W): 0.4
level of expressed mRNA in the presence of chemical substance/in its absence (gene YDR410C): 1.6
The level of expressed mRNA in the presence of chemical substance/absence: YDR421W (gene YDR421W): 1.0
The level of expressed mRNA in the presence of chemical substance/absence: YDR425W (gene YDR425W): 0.9
The level of expressed mRNA in the presence of chemical substance/absence: YDR485C (gene YDR485C): 0.9
level of expressed mRNA in the presence of chemical substance/in its absence (gene YDR487C): 2.1
level of expressed mRNA in the presence of chemical substance/in its absence (gene YDR502C): 1.3
The level of expressed mRNA in the presence of chemical substance/absence: YDR504C (gene YDR504C): 1.2
level of expressed mRNA in the presence of chemical substance/in its absence (gene YEL011W): 3.7
level of expressed mRNA in the presence of chemical substance/in its absence (gene YEL020C): 1.3
The level of expressed mRNA in the presence of chemical substance/absence: YEL044W (gene YEL044W): 1.6
level of expressed mRNA in the presence of chemical substance/in its absence (gene YER026C): 0.9
level of expressed mRNA in the presence of chemical substance/in its absence (gene YER069W): 1.5
The level of expressed mRNA in the presence of chemical substance/absence: YER092W (gene YER092W): 0.9
The level of expressed mRNA in the presence of chemical substance/absence: YER182W (gene YER182W): 1.5
The level of expressed mRNA in the presence of chemical substance/absence: YFL042C (gene YFL042C): 5.4
level of expressed mRNA in the presence of chemical substance/in its absence (gene YFR015C): 3.9
The level of expressed mRNA in the presence of chemical substance/absence: YFR026C (gene YFR026C): 0.8
The level of expressed mRNA in the presence of chemical substance/absence: YFR056C (gene YFR056C): 1.3
level of expressed mRNA in the presence of chemical substance/in its absence (gene YGL001C): 1.6
level of expressed mRNA in the presence of chemical substance/in its absence (gene YGL022W): 0.8
level of expressed mRNA in the presence of chemical substance/in its absence (gene YGL039W): 1.1
The level of expressed mRNA in the presence of chemical substance/absence: YGL041C (gene YGL041C): 0.6
The level of expressed mRNA in the presence of chemical substance/absence: YGL045W (gene YGL045W): 1.2
The level of expressed mRNA in the presence of chemical substance/absence: YGL057C (gene YGL057C): 1.3
The level of expressed mRNA in the presence of chemical substance/absence: YGL088W (gene YGL088W): 0.8
level of expressed mRNA in the presence of chemical substance/in its absence (gene YGL104C): 1.8
level of expressed mRNA in the presence of chemical substance/in its absence (gene YGL126W): 1.0
level of expressed mRNA in the presence of chemical substance/in its absence (gene YGL134W): 1.1
level of expressed mRNA in the presence of chemical substance/in its absence (gene YGL154C): 0.9
The level of expressed mRNA in the presence of chemical substance/absence: YGL183C (gene YGL183C): 0.8
level of expressed mRNA in the presence of chemical substance/in its absence (gene YGL209W): 0.8
The level of expressed mRNA in the presence of chemical substance/absence: YGL223C (gene YGL223C): 1.3
level of expressed mRNA in the presence of chemical substance/in its absence (gene YGL253W): 1.0
The level of expressed mRNA in the presence of chemical substance/absence: YGR038W (gene YGR038W): 1.4
level of expressed mRNA in the presence of chemical substance/in its absence (gene YGR060W): 0.8
The level of expressed mRNA in the presence of chemical substance/absence: YGR139W (gene YGR139W): 0.9
The level of expressed mRNA in the presence of chemical substance/absence: YGR156W (gene YGR156W): 0.5
The level of expressed mRNA in the presence of chemical substance/absence: YGR198W (gene YGR198W): 1.0
The level of expressed mRNA in the presence of chemical substance/absence: YGR210C (gene YGR210C): 1.0
The level of expressed mRNA in the presence of chemical substance/absence: YGR211W (gene YGR211W): 0.8
The level of expressed mRNA in the presence of chemical substance/absence: YGR237C (gene YGR237C): 1.6
The level of expressed mRNA in the presence of chemical substance/absence: YGR243W (gene YGR243W): 1.7
The level of expressed mRNA in the presence of chemical substance/absence: YGR250C (gene YGR250C): 1.6
The level of expressed mRNA in the presence of chemical substance/absence: YGR266W (gene YGR266W): 1.2
The level of expressed mRNA in the presence of chemical substance/absence: YGR277C (gene YGR277C): 1.2
